Assay results as given in patent publication US6914045B2, “Glycopeptide antibiotics” (Wyeth Holdings Corporation, priority 2001, dated 2005).
Values after ≈ are worked out from the molar mass of the structure shown. Numbered stars: 1 amine (or outer) side, 2 acyl side, 3 side chain; on linkers, the order of the positions; unused ones are H or OH. Square brackets hold non-standard residues; d marks the D form. Peptide text beside a SMILES is read from it. ξ: configuration not given here. X1 = N=C1NCC(C(O)C(N[*:1])C(=O)[*:2])N1C1OC(CO)C(O)C(O)C1O; ξEnduracididine(βξ-OH,4'ξ) = N=C1NCC(C(O)C(N)C(=O)O)N1; ξCha(3ξ-Me) = CC(C1CCCCC1)C(N)C(=O)O; Cha = N[CH](CC1CCCCC1)C(=O)O

What was measured:
Assay in all cases: in vitro antibacterial evaluation, MIC by broth dilution
Assay type in all cases: cell-based
Conditions in all cases: broth dilution, 18 hours at 35° C.
Enterococcus sp. = tested on: Enterococcus sp.
In short: (§1)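 MIC, the lowest antibiotic concentration preventing growth, was read across 64-0.06 μg/mL with 5×10^5 CFU/mL inoculum. Method followed NCCLS M7-A2 broth dilution using Mueller-Hinton II; Gram-positive strains covered recent methicillin-, penicillin- and/or vancomycin-resistant clinical isolates.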

Staphylococcus sp. = tested on: Staphylococcus sp.
In short: as §1

Streptococcus sp. = tested on: Streptococcus sp.
In short: as §1

Escherichia coli = tested on: Escherichia coli
In short: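 MIC is the lowest antibiotic concentration (tested 64-0.06 μg/mL) preventing growth of a 5×10^5 CFU/mL inoculum. Determined by broth dilution in Mueller-Hinton II medium following NCCLS standard M7-A2.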

**Q.** What does the source list for `CC(C1CCCCC1)C1NC(=O)CNC(=O)C(CO)NC(=O)C(C(O)C2CNC(=N)N2C2OC(CO)C(O)C(O)C2O)NC(=O)C(C(O)C2CNC(=N)N2)NC(=O)C(CC2CCCCC2)NC1=O` (stereo not drawn) [Example 53, Cyclo[3-cyclohexylalanyl-3-(2-iminoimidazolidin-4-yl)seryl-3-(3-hexopyranosyl-2-iminoimidazolidin-4-yl)serylserylglycyl-3-cyclohexyl-2-aminobutanyl]] (cyclo(G[ξCha(3ξ-Me)][Cha][ξEnduracididine(βξ-OH,4'ξ)][X1]S); configuration not given here)?
**A.** MIC Enterococcus avium (GC 4558) (Enterococcus sp.; Enterococcus avium (GC 4558)): 4 µg/mL (≈ 4.14 µM); MIC Enterococcus faecalis (ATCC 29212) (Enterococcus sp.; Enterococcus faecalis (ATCC 29212)): 8 µg/mL (≈ 8.27 µM); MIC Enterococcus faecalis (GC 4552) (Enterococcus sp.; Enterococcus faecalis (GC 4552)): 8 µg/mL (≈ 8.27 µM); MIC Enterococcus faecalis (GC 4553) (Enterococcus sp.; Enterococcus faecalis (GC 4553)): 4 µg/mL (≈ 4.14 µM); MIC Enterococcus faecalis (GC 4554) (Enterococcus sp.; Enterococcus faecalis (GC 4554)): 16 µg/mL (≈ 16.5 µM); MIC Enterococcus faecalis (GC 6189) (Enterococcus sp.; Enterococcus faecalis (GC 6189)): 4 µg/mL (≈ 4.14 µM); MIC Enterococcus faecium (GC 2243) (Enterococcus sp.; Enterococcus faecium (GC 2243)): 2 µg/mL (≈ 2.07 µM); MIC Enterococcus faecium (GC 4556) (Enterococcus sp.; Enterococcus faecium (GC 4556)): 8 µg/mL (≈ 8.27 µM); MIC Enterococcus faecium (GC 4557) (Enterococcus sp.; Enterococcus faecium (GC 4557)): 2 µg/mL (≈ 2.07 µM); MIC Enterococcus faecalis (ATCC 29212) (Enterococcus sp.; strain ATCC 29212): 8 µg/mL (≈ 8.27 µM); MIC Enterococcus faecalis (GC 2242) (Enterococcus sp.; strain GC 2242): 8 µg/mL (≈ 8.27 µM); MIC Enterococcus faecium (GC 2243) (Enterococcus sp.; strain GC 2243): 2 µg/mL (≈ 2.07 µM); MIC Enterococcus faecalis (GC 2691) (Enterococcus sp.; strain GC 2691): 8 µg/mL (≈ 8.27 µM); MIC Enterococcus faecalis (GC 3059) (Enterococcus sp.; strain GC 3059): 8 µg/mL (≈ 8.27 µM); MIC Enterococcus faecalis (GC 4552) (Enterococcus sp.; strain GC 4552): 8 µg/mL (≈ 8.27 µM); MIC Enterococcus faecalis (GC 4553) (Enterococcus sp.; strain GC 4553): 4 µg/mL (≈ 4.14 µM); MIC Enterococcus faecalis (GC 4554) (Enterococcus sp.; strain GC 4554): 16 µg/mL (≈ 16.5 µM); MIC Enterococcus faecium (GC 4556) (Enterococcus sp.; strain GC 4556): 8 µg/mL (≈ 8.27 µM); MIC Enterococcus faecium (GC 4557) (Enterococcus sp.; strain GC 4557): 2 µg/mL (≈ 2.07 µM); MIC Enterococcus avium (GC 4558) (Enterococcus sp.; strain GC 4558): 4 µg/mL (≈ 4.14 µM); MIC Enterococcus faecalis (GC 6189) (Enterococcus sp.; strain GC 6189): 4 µg/mL (≈ 4.14 µM); MIC Staphylococcus aureus (ATCC 29213) (Staphylococcus sp.; strain ATCC 29213): 2 µg/mL (≈ 2.07 µM); MIC Staphylococcus aureus (GC 1131) (Staphylococcus sp.; strain GC 1131): 4 µg/mL (≈ 4.14 µM); MIC Staphylococcus aureus (GC 3051) (Staphylococcus sp.; strain GC 3051): 2 µg/mL (≈ 2.07 µM); MIC Staphylococcus aureus (GC 3053) (Staphylococcus sp.; strain GC 3053): 4 µg/mL (≈ 4.14 µM); MIC Staphylococcus aureus (GC 4541) (Staphylococcus sp.; strain GC 4541): 4 µg/mL (≈ 4.14 µM); MIC Staphylococcus aureus (GC 4542) (Staphylococcus sp.; strain GC 4542): 2 µg/mL (≈ 2.07 µM); MIC Staphylococcus aureus-SMITH (GC 4543) (Staphylococcus sp.; strain GC 4543): 2 µg/mL (≈ 2.07 µM); MIC Staphylococcus aureus (GC 4544) (Staphylococcus sp.; strain GC 4544): 4 µg/mL (≈ 4.14 µM); MIC Staphylococcus aureus (GC 4545) (Staphylococcus sp.; strain GC 4545): 2 µg/mL (≈ 2.07 µM); MIC Staphylococcus haemolyticus (GC 4546) (Staphylococcus sp.; strain GC 4546): 1 µg/mL (≈ 1.03 µM); MIC Coagulase Negative Staphylococcus (GC 4547) (Staphylococcus sp.; strain GC 4547): 2 µg/mL (≈ 2.07 µM); MIC Coagulase Negative Staphylococcus (GC 4548) (Staphylococcus sp.; strain GC 4548): 2 µg/mL (≈ 2.07 µM); MIC Coagulase Negative Staphylococcus (GC 4549) (Staphylococcus sp.; strain GC 4549): 1 µg/mL (≈ 1.03 µM); MIC Coagulase Negative Staphylococcus (GC 4551) (Staphylococcus sp.; strain GC 4551): 2 µg/mL (≈ 2.07 µM); MIC Streptococcus pneumoniae (ATCC 6301) (Streptococcus sp.; strain ATCC 6301): 1 µg/mL (≈ 1.03 µM); MIC Streptococcus pneumoniae (GC 1894) (Streptococcus sp.; strain GC 1894): 1 µg/mL (≈ 1.03 µM); MIC Streptococcus pyogenes (GC 4563) (Streptococcus sp.; strain GC 4563): 1 µg/mL (≈ 1.03 µM); MIC Streptococcus agalactiae (GC 4564) (Streptococcus sp.; strain GC 4564): 1 µg/mL (≈ 1.03 µM); MIC Streptococcus pneumoniae (GC 4565) (Streptococcus sp.; strain GC 4565): 4 µg/mL (≈ 4.14 µM); MIC Escherichia coli (ATCC 25922) (Escherichia coli; strain ATCC 25922): 128 µg/mL (≈ 132 µM); MIC Escherichia coli (GC 4559) (Escherichia coli; strain GC 4559): 128 µg/mL (≈ 132 µM); MIC Escherichia coli (GC 4560) (Escherichia coli; strain GC 4560): 4 µg/mL (≈ 4.14 µM)
